Source: paper PMC12401824, “Studies on the impact of modifications at the Gln-Trp site in RM2-based GRPR ligands” (EJNMMI Research, 2025)
Where “and” joins values, the source holds several entries; their conditions need not be identical. Equal values may be shown once. Entries after “also recorded” stand apart in the source; their conditions may differ. Read-outs that look alike come from different tables or passages of the source. Starred links: 1 amine or outer side, 2 acyl side, 3 side chain; linkers in the order of their positions; H or OH if unused. Non-standard residues stand in square brackets, D forms with d. Residues, ends and D or L forms follow the SMILES beside them. *: point of attachment. DOTA = O=C(O)CN1CCN(CC(=O)O)CCN(CC(=O)*)CCN(CC(=O)O)CC1; Sta = CC(C)C[C@H](N)[C@@H](O)CC(=O)O; Bta = N[C@@H](Cc1csc2ccccc12)C(=O)O; X1 = O=C(CN1CCC(N[*:1])CC1)[*:2]; hSer = N[C@@H](CCO)C(=O)O

Columns and labels:
[1] = Metabolic stability in vivo in mice (intact tracer in serum); settings: ^177Lu-labeled, healthy mice
Description: Metabolic stability in vivo was determined according to a previously published protocol by injecting approximately 30–40 MBq (1 nmol, 150 µL) of the ^177Lu-labeled compounds into the tail vein of anesthetized CB17-SCID mice (n = 3).

[2] = Biodistribution in PC-3 tumor-bearing CB17-SCID mice; format: in vivo; settings: mouse, intravenous, 100 pmol, ^177Lu-labeled, 100 pmol, n = 4; for tissue uptake at 1 h: 1 h p.i.; for tissue uptake at 24 h: 24 h p.i.
Description: To establish tumor xenografts, PC-3 cells (5.0 × 10^6 cells per 200 µL) were suspended in a 1/1 mixture (v/v) of Dulbecco’s modified eagle's medium/Ham’s F-12 with Glutamax-I (v/v = 1/1) and Cultrex® Basement Membrane Matrix Type 3 (Trevigen Inc., Gaithersburg, MD, USA) and inoculated subcutaneously onto the right shoulder of CB17-SCID mice (Charles River Laboratories International Inc., Sulzfeld, Germany). Mice (n = 4) were used for experiments when tumor volume has reached 125–500 mm^3 (2–3 weeks after inoculation).
Biodistribution. […] (n = 4), respectively. Selected organs were removed, weighted and measured in a γ-counter.

PC-3 tumor xenograft = test: Competition study: co-injection of excess Lu-RM2 in PC-3 tumor-bearing mice; format: in vivo; settings: ^177Lu-labeled, 100 pmol; co-injection of 40 nmol Lu-RM2; 1 h p.i.; n = 3
Description: µPET/CT imaging. Imaging studies were performed at a MILabs VECTor^4 small-animal SPECT/PET/OI/CT device (MILabs, Utrecht, the Netherlands). Data were reconstructed using the MILabs Rec software (version 10.02) and a pixel-based Similarity-Regulated Ordered Subsets Expectation Maximization (SROSEM) algorithm, followed by data analysis using the PMOD4.0 software (PMOD TECHNOLOGIES LLC, Zurich, Switzerland). […] Static images were recorded at 1 h p.i. with an acquisition time of 45–60 min (3–4 frames, 15 min each) using the HE-GP-RM collimator and a step-wise multi-planar bed movement. Depending on the size of the mouse, either four or eight bed position were required, with an imaging time of ~ 1.8 min or ~ 3.6 min per bed position. For competition studies, 3.62 mg/kg (40 nmol) of Lu-RM2 (10^−3 M in PBS) were co-administered.
Figure S6. […] Data are expressed as mean ± SD (n = 4). […] Data are expressed as mean ± SD (n = 3).

[3] = adrenal, read-out: Uptake in Adrenal
[4] = blood, read-out: Uptake in Blood
[5] = heart, read-out: Uptake in Heart
[6] = intestine, read-out: Uptake in Intestine
[7] = kidney, read-out: Uptake in Kidney
[8] = liver, read-out: Uptake in Liver
[9] = muscle, read-out: Uptake in Muscle
[10] = pancreas, read-out: Uptake in Pancreas
[11] = spleen, read-out: Uptake in Spleen
[12] = stomach, read-out: Uptake in Stomach
[13] = tumor, read-out: Uptake in Tumor

| Intact compound in murine serum in vivo, 15 min after injection [1] | tissue uptake at 1 h [2, 3] | tissue uptake at 24 h [2, 3] | tissue uptake at 1 h [2, 4] | tissue uptake at 24 h [2, 4] | tissue uptake at 1 h ([2]; bone, read-out: Uptake in Bone) | tissue uptake at 24 h ([2]; bone, read-out: Uptake in Bone) | tissue uptake at 1 h [2, 5] | tissue uptake at 24 h [2, 5] | tissue uptake at 1 h [2, 6] | tissue uptake at 24 h [2, 6] | tissue uptake at 1 h [2, 7] | tissue uptake at 24 h [2, 7] | tissue uptake at 1 h [2, 8] | tissue uptake at 24 h [2, 8] | tissue uptake at 1 h ([2]; lung, read-out: Uptake in Lung) | tissue uptake at 24 h ([2]; lung, read-out: Uptake in Lung) | tissue uptake at 1 h [2, 9] | tissue uptake at 24 h [2, 9] | SMILES | Intact compound in murine serum in vivo, 30 min after injection [1] | other results |
| --- | --- | --- | --- | --- | --- | --- | --- | --- | --- | --- | --- | --- | --- | --- | --- | --- | --- | --- | --- | --- | --- |
| < 20% and ~ 10% | 1.1 ± 0.1 %ID/g | 0.59 ± 0.33 %ID/g | 1.6 ± 0.1 %ID/g | 0.04 ± 0.04 %ID/g | 0.9 %ID/g | 2.58 ± 1.05 %ID/g | 0.7 %ID/g | 0.09 ± 0.01 %ID/g | 1 ± 0.3 %ID/g | 0.28 ± 0.07 %ID/g | 4.4 ± 0.4 %ID/g | 2.07 ± 0.23 %ID/g | 1.1 ± 0.1 %ID/g | 0.77 ± 0.09 %ID/g | 1.8 ± 0.2 %ID/g | 0.22 ± 0.11 %ID/g | 0.2 ± 0.1 %ID/g | 0.02 ± 0.02 %ID/g | CC(C)C[C@H](NC(=O)C[C@H](O)[C@H](CC(C)C)NC(=O)[C@H](Cc1c[nH]cn1)NC(=O)CNC(=O)[C@@H](NC(=O)[C@H](C)NC(=O)[C@H](Cc1csc2ccccc12)NC(=O)[C@H](CCC(N)=O)NC(=O)[C@@H](Cc1ccccc1)NC(=O)CN1CCC(NC(=O)CN2CCN(CC(=O)O)CCN(CC(=O)O)CCN(CC(=O)O)CC2)CC1)C(C)C)C(N)=O [[^177Lu]Lu-[Bta^8]RM2, metal not drawn] ({DOTA}-[X1][dF]Q[Bta]AVGH[Sta]L-NH2) | did not show any intact; also recorded: could not detect any intact | tissue uptake at 1 h [2, 10]: 3.7 ± 1.4 %ID/g; tissue uptake at 24 h [2, 10]: 0.17 ± 0.02 %ID/g; tissue uptake at 24 h [2, 11]: 0.32 ± 0.06 %ID/g; tissue uptake at 1 h [2, 12]: 1.3 ± 0.3 %ID/g; tissue uptake at 24 h [2, 12]: 0.27 ± 0.08 %ID/g; tissue uptake at 1 h [2, 13]: 12.1 ± 1.8 %ID/g; tissue uptake at 24 h [2, 13]: ~2 %ID/g; Specificity of tumor accumulation (competition with excess of Lu-RM2) (PC-3 tumor xenograft): specific |
| < 20% and ~ 19% | 1.2 ± 0.5 %ID/g | 0.61 ± 0.21 %ID/g | 1 ± 0.2 %ID/g | 0.02 %ID/g | 0.2 %ID/g | 2.37 ± 1.13 %ID/g | 0.4 ± 0.1 %ID/g | 0.11 ± 0.03 %ID/g | 1.6 ± 0.2 %ID/g | 0.38 ± 0.11 %ID/g | 4.8 ± 0.3 %ID/g | 1.94 ± 0.28 %ID/g | 0.9 ± 0.1 %ID/g | 0.96 ± 0.15 %ID/g | 0.9 ± 0.2 %ID/g | 0.17 ± 0.02 %ID/g | 0.2 %ID/g | 0.01 %ID/g | CC(C)C[C@H](NC(=O)C[C@H](O)[C@H](CC(C)C)NC(=O)[C@H](Cc1c[nH]cn1)NC(=O)CNC(=O)[C@@H](NC(=O)[C@H](C)NC(=O)[C@H](Cc1c[nH]c2ccccc12)NC(=O)[C@H](CCO)NC(=O)[C@@H](Cc1ccccc1)NC(=O)CN1CCC(NC(=O)CN2CCN(CC(=O)O)CCN(CC(=O)O)CCN(CC(=O)O)CC2)CC1)C(C)C)C(N)=O [[^177Lu]Lu-[Hse^7]RM2, metal not drawn] ({DOTA}-[X1][dF][hSer]WAVGH[Sta]L-NH2) | did not show any intact; also recorded: could not detect any intact | tissue uptake at 1 h [2, 10]: 8 ± 0.5 %ID/g; tissue uptake at 24 h [2, 10]: 0.14 ± 0.01 %ID/g; tissue uptake at 1 h [2, 11]: 0.6 ± 0.2 %ID/g; tissue uptake at 24 h [2, 11]: 0.36 ± 0.03 %ID/g; tissue uptake at 1 h [2, 12]: 2.2 ± 0.3 %ID/g; tissue uptake at 24 h [2, 12]: 0.26 ± 0.01 %ID/g; tissue uptake at 1 h [2, 13]: 16.6 ± 1.6 %ID/g; tissue uptake at 24 h [2, 13]: ~2 %ID/g; Specificity of tumor accumulation (competition with excess of Lu-RM2) (PC-3 tumor xenograft): specific |
